Measured values taken from patent US9200008B2 (ASKA PHARMACEUTICAL CO., LTD., priority 2010, dated 2015).

Tested on: Human prostate cancer cell lines (PC-3 cells)
Experiment: Measurement of cell death-inducing activity (Test Example 1)
Type: cell-based
Conditions: PC-3, 48 h, 48 hours after addition, tested at 10, 1, 0.1, 0.025 and 0.00625 μmol/L, qualitative evaluation of 10 fields, read-out: Concentration showing the cell death-inducing activity (cell death-inducing rate not less than 40%)
Outline: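 Compound treatment lasted 48 h at 10 to 0.00625 μmol/L (five levels, DMSO as control) on PC-3 cells pre-cultured 48 h at 37 °C, 5% CO2 after seeding at 1×10^5 cells/well. A cell death-inducing rate of 40% or more counted as active.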

COc1cc(C)ccc1-c1nc(C)c(NC(=O)OCc2ccc3c(c2)nc2n3CCNC2)s1 [Example 39-1, [2-(2-Methoxy-4-methylphenyl)-4-methylthiazol-5-yl]carbamic acid 1,2,3,4-tetrahydrobenzo[4,5]imidazo[1,2-a]pyrazin-8-ylmethyl ester]
minimal effective concentration: 0.1 µM

COc1ccc(/C=N/NC(=O)c2sc(-c3ccc(F)cc3)nc2C)cc1 [Example 23-67]
minimal effective concentration: 1 µM

CCc1nc(-c2ccc(Cl)cc2)sc1C(=O)N/N=C/c1ccc(O)c(C)c1 [Example 23-108]
minimal effective concentration: 10 µM

COc1ccc(-c2nc(C)c(NC(=O)OCc3ccc4ncsc4c3)s2)c(OC)c1 [Example 36-3]
minimal effective concentration: 10 µM

CCn1nnc2cc(COC(=O)Nc3sc(-c4ccc(Cl)cc4OC)nc3C)ccc21 [Example 9-24]
minimal effective concentration: 0.00625 µM

COc1cc(F)ccc1-c1nc(C)c(NC(=O)OCc2ccc3c(cnn3C)c2)s1 [Example 9-127]
minimal effective concentration: 0.1 µM

CCc1nc(-c2ccc(F)cc2C)sc1NC(=O)OCc1ccc2ncsc2c1 [Example 36-5]
minimal effective concentration: 10 µM

CCn1nc(-c2ccc(Cl)cc2OC)cc1COC(=O)Nc1ccc2c(c1)nc1n2CCOC1 [Example 13-100]
minimal effective concentration: 0.00625 µM

CCc1nc(-c2ccc(Cl)cc2C)sc1NC(=O)OCc1ccc2c(cnn2CC)c1 [Example 9-362]
minimal effective concentration: 0.025 µM

Cc1nc(-c2ccccc2C(F)(F)F)sc1C(=O)N/N=C/c1ccc(OC(F)F)c(O)c1 [Example 23-118]
minimal effective concentration: 1 µM

CCn1nc(-c2ccc(C)cc2C)cc1NC(=O)OCc1ccc2c(c1)ncn2CC [Example 9-236]
minimal effective concentration: 0.1 µM

COc1cc(C)ccc1-c1cc(COC(=O)Nc2ccc3c(c2)nc2n3CCC2)n(C)n1 [Example 13-112]
minimal effective concentration: 0.00625 µM

COc1cc(F)ccc1-c1cc(COC(=O)Nc2ccc3c(c2)nc2n3CCOC2)n(C)n1 [Example 13-97]
minimal effective concentration: 0.00625 µM

Cc1nc(-c2ccccc2F)sc1NC(=O)OCc1ccc2c(c1)ncn2C [Example 9-43]
minimal effective concentration: 1 µM

Cc1ccc(-c2nc(C)c(COC(=O)Nc3ccc4sc(C)nc4c3)s2)c(C)c1 [Example 42-1, (2-Methylbenzothiazol-5-yl)carbamic acid 2-(2,4-dimethylphenyl)-4-methylthiazol-5-ylmethyl ester]
minimal effective concentration: 1 µM

COc1cc(F)ccc1-c1nc(C)c(NC(=O)OCc2ccc3nn(C)cc3c2)s1 [Example 9-143]
minimal effective concentration: 0.025 µM

CCc1nc(-c2ccc(C)cc2OC)sc1NC(=O)OCc1ccc2c(c1)nc1n2CCCC1 [Example 9-353]
minimal effective concentration: 0.1 µM

COc1cc(Cl)ccc1-c1nc(C)c(NC(=O)OCc2ccc3c(c2)CCO3)s1 [Example 9-7]
minimal effective concentration: 10 µM

Cc1ccc(-c2nc(C3CC3)c(NC(=O)OCc3ccc4c(c3)ncn4C)s2)c(C)c1 [Example 9-185]
minimal effective concentration: 0.1 µM

COc1ccc(/C=N/NC(=O)c2sc(-c3ccc(Cl)cc3OC)nc2C)cc1O [Example 23-74]
minimal effective concentration: 0.1 µM

COc1cc(Cl)ccc1-c1cc(COC(=O)Nc2ccc3c(c2)ncn3C)nn1C [Example 13-137]
minimal effective concentration: 10 µM

COc1cc(Cl)ccc1-c1cc(NC(=O)OC(C)c2ccc3c(c2)ncn3C)n(C)n1 (stereo not shown) [Example 9-338]
minimal effective concentration: 10 µM

COc1ccc(/C=N/NC(=O)c2sc(C3CCCCC3)nc2C)cc1O [Example 23-128]
minimal effective concentration: 1 µM

Cc1cc(/C=N/NC(=O)c2sc(-c3ccc(Cl)cc3C)nc2C)ccc1O [Example 23-47]
minimal effective concentration: 1 µM

Cc1cc(Cl)ccc1-c1nc(C)c(COC(=O)Nc2ccc3c(c2)ncn3C)s1 [Example 13-10]
minimal effective concentration: 0.00625 µM

COc1cc(Cl)ccc1-c1cc(NC(=O)OCc2ccc3c(c2)nc(C)n3C)n(C)n1 [Example 9-239]
minimal effective concentration: 0.025 µM

CCn1nc(-c2ccccc2OC)cc1COC(=O)Nc1ccc2c(c1)nc1n2CCOC1 [Example 13-96]
minimal effective concentration: 0.1 µM

COc1ccccc1-c1nc(C)c(NC(=O)OCc2ccc3c(c2)nc2n3CCOC2)s1 [Example 9-91]
minimal effective concentration: 0.025 µM

COc1ccc(/C=N/NC(=O)c2sc(-c3ccccn3)nc2C)cc1O [Example 23-28]
minimal effective concentration: 1 µM

Cc1ccc(-c2nc(C)c(NC(=O)OCc3ccc4c(c3)nc3n4CCC(C)C3)s2)c(C)c1 (stereo not shown) [Example 9-122]
minimal effective concentration: 1 µM

CCn1nc(-c2ccc(C)cc2OC)cc1COC(=O)Nc1ccc2c(c1)nc1n2CCCC1 [Example 13-121]
minimal effective concentration: 0.025 µM

COc1cc(Cl)ccc1-c1cc(COC(=O)Nc2ccc3c(c2)CCO3)n(C)n1 [Example 13-73]
minimal effective concentration: 10 µM

CCc1ccccc1-c1nc(C)c(NC(=O)OCc2ccc3c(c2)nc2n3CCCC2)s1 [Example 9-109]
minimal effective concentration: 1 µM

CCn1ncc2cc(COC(=O)Nc3sc(-c4ccc(F)cc4OC)nc3C)ccc21 [Example 9-135]
minimal effective concentration: 0.025 µM

COc1ccc(CN(C)NC(=O)c2sc(-c3ccc(Cl)cc3OC)nc2C)cc1 [Example 16-1, 2-(4-Chloro-2-methoxyphenyl)-4-methylthiazole-5-carboxylic acid N′-(4-methoxybenzyl)-N′-methyl hydrazide]
minimal effective concentration: 0.1 µM

CCn1cnc2cc(NC(=O)OCc3cc(-c4ccccc4OC)ns3)ccc21 [Example 47-10]
minimal effective concentration: 10 µM

O=C(N/N=C/c1ccc(OC(F)F)c(O)c1)c1cc(-c2ccc(Cl)cc2Cl)ns1 [Example 27-2]
minimal effective concentration: 10 µM

COc1cccc(-c2nc(C)c(C(=O)N/N=C/c3cc(C)c(O)c(C)c3)s2)c1C [Example 23-131]
minimal effective concentration: 1 µM

CCc1nc(-c2ccc(C)cc2OC)sc1NC(=O)OCc1ccc2nn(C)cc2c1 [Example 9-365]
minimal effective concentration: 0.025 µM

COc1cc(C)ccc1-c1cc(NC(=O)OCc2ccc3c(c2)ncn3C)n(C)n1 [Example 9-226]
minimal effective concentration: 0.00625 µM

Cc1ccc(-c2nc(C)c(NC(=O)OCc3ccc4sc(C)nc4c3)s2)c(C)c1 [Example 37-3]
minimal effective concentration: 1 µM

COc1ccccc1-c1nc(C)c(C(=O)N/N=C/c2ccc3occc3c2)s1 [Example 23-159]
minimal effective concentration: 0.1 µM

COc1cc(F)ccc1-c1nc(C)c(NC(=O)OCc2ccc3c(c2)ncn3C)s1 [Example 9-38]
minimal effective concentration: 0.00625 µM

Cc1nc(-c2ccc(F)cc2)sc1NC(=O)OCc1ccc2c(c1)ncn2C [Example 9-45]
minimal effective concentration: 1 µM

CCc1nc2cc(COC(=O)Nc3cc(-c4ccc(Cl)cc4OC)nn3C)ccc2n1C [Example 9-242]
minimal effective concentration: 0.1 µM

Cn1cnc2cc(COC(=O)Nc3nnc(-c4ccc(Cl)cc4Cl)s3)ccc21 [Example 9-335]
minimal effective concentration: 10 µM

CCn1nc(-c2ccc(F)cc2OC)cc1COC(=O)Nc1ccc2c(c1)nc1n2CCCC1 [Example 13-117]
minimal effective concentration: 0.1 µM

CCc1nc(-c2ccc(F)cc2C)sc1NC(=O)OCc1ccc2c(c1)nc1n2CCC1 [Example 9-348]
minimal effective concentration: 0.1 µM

CCn1cnc2cc(NC(=O)OCc3sc(-c4ccc(Cl)cc4C)nc3C)ccc21 [Example 13-17]
minimal effective concentration: 0.025 µM

CCn1cc2cc(COC(=O)Nc3sc(-c4ccc(C)cc4C)nc3C)ccc2n1 [Example 9-157]
minimal effective concentration: 0.1 µM

CCn1nc(-c2ccc(F)cc2OC)cc1COC(=O)Nc1ccc2c(c1)nc1n2CCOC1 [Example 13-98]
minimal effective concentration: 0.025 µM

CCn1nc(-c2ccc(F)cc2OC)cc1COC(=O)Nc1ccc2c(c1)ncn2CC [Example 13-83]
minimal effective concentration: 0.025 µM

CCn1nc(-c2ccc(C)cc2OC)cc1COC(=O)Nc1ccc2c(c1)nc1n2CCOC1 [Example 13-102]
minimal effective concentration: 0.025 µM

Cn1nc(-c2ccc(Cl)cc2Cl)cc1NC(=O)OCc1ccc2c(cnn2C)c1 [Example 9-275]
minimal effective concentration: 1 µM

Cc1cc(/C=N/NC(=O)c2sc(-c3ccc(Cl)cc3)nc2C(C)(C)C)cc(C)c1O [Example 23-21]
minimal effective concentration: 10 µM

Cc1nc(-c2ccc(F)cc2Cl)sc1NC(=O)OCc1ccc2c(c1)nnn2C [Example 9-18]
minimal effective concentration: 0.1 µM

CCn1nc(-c2ccc(C)cc2C)cc1NC(=O)OCc1ccc2c(c1)ncn2C [Example 9-234]
minimal effective concentration: 0.025 µM

CCc1nc(-c2ccc(Cl)cc2C)sc1NC(=O)OCc1ccc2c(c1)ncn2C [Example 9-359]
minimal effective concentration: 0.025 µM

CCn1nc(-c2ccc(Cl)c(Cl)c2)cc1NC(=O)OCc1ccc2c(c1)ncn2C [Example 9-211]
minimal effective concentration: 10 µM

CCn1cnc2cc(COC(=O)Nc3sc(-c4ccccc4C)nc3C)ccc21 [Example 9-53]
minimal effective concentration: 0.1 µM

Cc1cc(F)ccc1-c1nc(C)c(COC(=O)Nc2ccc3c(c2)ncn3C)s1 [Example 13-9]
minimal effective concentration: 0.025 µM

CCn1nc(-c2ccc(C)cc2C)cc1NC(=O)OCc1ccc2c(c1)nc1n2CCOC1 [Example 9-252]
minimal effective concentration: 0.1 µM

COc1ccc2c(c1)CC/C2=N\NC(=O)c1sc(-c2ccc(Cl)cc2OC)nc1C [Example 23-165]
minimal effective concentration: 1 µM

COc1ccc(/C=N/NC(=O)c2sc(-c3cccnc3)nc2C)cc1O [Example 23-41]
minimal effective concentration: 1 µM

COc1ccc(CN(C)NC(=O)c2sc(-c3ccc(F)cc3F)nc2C)cc1F [Example 16-21]
minimal effective concentration: 1 µM

CCCn1cnc2cc(COC(=O)Nc3sc(-c4ccc(C)cc4C)nc3C)ccc21 [Example 9-69]
minimal effective concentration: 1 µM

Cc1cc(Cl)ccc1-c1nc(C)c(COC(=O)Nc2ccc3c(c2)nc2n3CCSC2)s1 [Example 43-2]
minimal effective concentration: 0.025 µM

COc1ccccc1-c1nc(C)c(C(=O)N/N=C/c2ccc3cc[nH]c3c2)s1 [Example 23-91]
minimal effective concentration: 0.1 µM

COc1ccccc1-c1nc(C)c(NC(=O)OCc2ccc(SC)cc2)s1 [Example 9-5]
minimal effective concentration: 10 µM

COc1cc(C)ccc1-c1nc(C)c(NC(=O)OCc2ccc3nn(C)cc3c2)s1 [Example 9-145]
minimal effective concentration: 0.025 µM
